From patent US8598153B2, “Method of treatment using fatty acid synthesis inhibitors” (Merck Sharp & Dohme Corp., priority 2006, dated 2013) come the findings set out here.

One data set deals with T1, human FAS (Homo sapiens, UniProt P49327).
T1 construct: Cell extracts were processed by ammonium sulfate precipitation followed by DEAE chromatography; endogenous in cells; host or cells: SkBr3 human breast cancer cells (endogenous FAS, partially purified)
The data set can be described thus: FAS inhibitory activity in cell free Flashplate assay (formation of 3H-palmitate), human FAS. It counts as biochemical. The conditions noted are these: human FAS from SkBr3 cells, cell free flash plate assay. How it is done:
(§1) Compounds with formula I (platensimycin) and II (platencin) were titrated against human or rat FAS using the Flashplate assay. Animal FAS activity was assayed radiochemically for the formation of ^3H-palmitate. The assay buffer contained 200 mM KPi, pH 7, 2 mM EDTA, 2.5 mM DTT, 5 μM Acetyl CoA (^3H-acetyl-CoA, Specific Activity=0.3 Ci/mmole), 21 μM malonyl-CoA, and 20 uM NADPH in a final reaction volume of 200 μl Assays are performed in 96-well Phospholipid coated FlashPlates (Perkin Elmer). The reaction was initiated by adding FAS (0.17 mUnits/well, 1 Unit=1μ mole of NADPH consumed/minute). The plates were incubated at RT for 5 minutes before adding 6 μl of perchloric acid to stop the reaction. The plates sat at RT for at least 3 hours, preferably overnight, before counting. Background was determined from wells without malonyl CoA. The source of Human FAS was SkBr3 cells. Cell extracts were processed by ammonium sulfate precipitation followed by DEAE chromatography essentially as described by Jayakumar et al., 1995 (Jayakumar A, Tai M H, Huang W Y, al-Feel W, Hsu M, Abu-Elheiga L, Chirala S S, Wakil S J. Human fatty acid synthase: properties and molecular cloning. Proc Natl Acad Sci USA. 1995 Sep. 12; 92(19):8695-9). […]

Data set [1] deals with fatty acid oxidation in rat hepatocytes.
Method: Fatty acid oxidation in the hepatocytes was determined the conversion of C14-oleic acid to soluble acid products as described (Jiang G, Li Z, Liu F, Ellsworth K, Dallas-Yang Q, Wu M, Ronan J, Essau C, Murphy C, Szalkowski D, Bergeron R, Doebber T and Zhang B. Prevention of obesity in mice by antisense oligonucleotide inhibitors of stearoyl-CoA desaturase-1. J. Clin. Invest. 115: 1030-1038 (2003); Mannaerts G P, Debeer L J, Thomas J, ans DeSchepper P J. Mitochondrial and proxisomal fatty acid oxidation in liver homogenates and isolated hepatocytes from control and clofibrate-treated rats. J. Biol. Chem. 254:4585-4595 (1979)) with modifications. Hepatocytes seeded overnight and washed twice with PBS and then pre-incubated with compounds in 5 μl of DMSO in 2 ml medium199 plus 0.25% bovine serum albumin for 60 min. C14-oleic acid 0.25 μCi (NEN) was added to each well. The plates were gassed and sealed. After one hr incubation, 1 ml of medium was removed, mixed with 100 μl of 10% BSA and then 100 μl 60% HClO4. After centrifugation, 1 ml of the solution was counted the level of soluble acid products.
Data set [2] concerns fatty acid synthesis in rat hepatocytes. The data set can be described thus: Fatty acid synthesis in rat hepatocytes in vitro (C14-acetate incorporation). It counts as cell-based. The conditions noted are these: Hepatocyte, primary rat hepatocytes, read-out: Rat IC50 μM, fatty acid synthesis inhibitory activity. The source says:
115: 1030-1038 (2003) with modifications. […] The plates were gassed and sealed.

A further data set addresses T2, rat FAS (Rattus norvegicus, UniProt P12785).
T2 construct: The clarified supernatant was fractionated by ammonium sulfate precipitation; from tissue; host or cells: rat liver (fasted and high carbohydrate re-fed rats)
Kind of data set: FAS inhibitory activity in cell free Flashplate assay (formation of 3H-palmitate), rat FAS. The note with it: rat liver FAS, cell free flash plate assay. It counts as biochemical. How it is done:
as §1

T1 sequence (P49327 whole entry): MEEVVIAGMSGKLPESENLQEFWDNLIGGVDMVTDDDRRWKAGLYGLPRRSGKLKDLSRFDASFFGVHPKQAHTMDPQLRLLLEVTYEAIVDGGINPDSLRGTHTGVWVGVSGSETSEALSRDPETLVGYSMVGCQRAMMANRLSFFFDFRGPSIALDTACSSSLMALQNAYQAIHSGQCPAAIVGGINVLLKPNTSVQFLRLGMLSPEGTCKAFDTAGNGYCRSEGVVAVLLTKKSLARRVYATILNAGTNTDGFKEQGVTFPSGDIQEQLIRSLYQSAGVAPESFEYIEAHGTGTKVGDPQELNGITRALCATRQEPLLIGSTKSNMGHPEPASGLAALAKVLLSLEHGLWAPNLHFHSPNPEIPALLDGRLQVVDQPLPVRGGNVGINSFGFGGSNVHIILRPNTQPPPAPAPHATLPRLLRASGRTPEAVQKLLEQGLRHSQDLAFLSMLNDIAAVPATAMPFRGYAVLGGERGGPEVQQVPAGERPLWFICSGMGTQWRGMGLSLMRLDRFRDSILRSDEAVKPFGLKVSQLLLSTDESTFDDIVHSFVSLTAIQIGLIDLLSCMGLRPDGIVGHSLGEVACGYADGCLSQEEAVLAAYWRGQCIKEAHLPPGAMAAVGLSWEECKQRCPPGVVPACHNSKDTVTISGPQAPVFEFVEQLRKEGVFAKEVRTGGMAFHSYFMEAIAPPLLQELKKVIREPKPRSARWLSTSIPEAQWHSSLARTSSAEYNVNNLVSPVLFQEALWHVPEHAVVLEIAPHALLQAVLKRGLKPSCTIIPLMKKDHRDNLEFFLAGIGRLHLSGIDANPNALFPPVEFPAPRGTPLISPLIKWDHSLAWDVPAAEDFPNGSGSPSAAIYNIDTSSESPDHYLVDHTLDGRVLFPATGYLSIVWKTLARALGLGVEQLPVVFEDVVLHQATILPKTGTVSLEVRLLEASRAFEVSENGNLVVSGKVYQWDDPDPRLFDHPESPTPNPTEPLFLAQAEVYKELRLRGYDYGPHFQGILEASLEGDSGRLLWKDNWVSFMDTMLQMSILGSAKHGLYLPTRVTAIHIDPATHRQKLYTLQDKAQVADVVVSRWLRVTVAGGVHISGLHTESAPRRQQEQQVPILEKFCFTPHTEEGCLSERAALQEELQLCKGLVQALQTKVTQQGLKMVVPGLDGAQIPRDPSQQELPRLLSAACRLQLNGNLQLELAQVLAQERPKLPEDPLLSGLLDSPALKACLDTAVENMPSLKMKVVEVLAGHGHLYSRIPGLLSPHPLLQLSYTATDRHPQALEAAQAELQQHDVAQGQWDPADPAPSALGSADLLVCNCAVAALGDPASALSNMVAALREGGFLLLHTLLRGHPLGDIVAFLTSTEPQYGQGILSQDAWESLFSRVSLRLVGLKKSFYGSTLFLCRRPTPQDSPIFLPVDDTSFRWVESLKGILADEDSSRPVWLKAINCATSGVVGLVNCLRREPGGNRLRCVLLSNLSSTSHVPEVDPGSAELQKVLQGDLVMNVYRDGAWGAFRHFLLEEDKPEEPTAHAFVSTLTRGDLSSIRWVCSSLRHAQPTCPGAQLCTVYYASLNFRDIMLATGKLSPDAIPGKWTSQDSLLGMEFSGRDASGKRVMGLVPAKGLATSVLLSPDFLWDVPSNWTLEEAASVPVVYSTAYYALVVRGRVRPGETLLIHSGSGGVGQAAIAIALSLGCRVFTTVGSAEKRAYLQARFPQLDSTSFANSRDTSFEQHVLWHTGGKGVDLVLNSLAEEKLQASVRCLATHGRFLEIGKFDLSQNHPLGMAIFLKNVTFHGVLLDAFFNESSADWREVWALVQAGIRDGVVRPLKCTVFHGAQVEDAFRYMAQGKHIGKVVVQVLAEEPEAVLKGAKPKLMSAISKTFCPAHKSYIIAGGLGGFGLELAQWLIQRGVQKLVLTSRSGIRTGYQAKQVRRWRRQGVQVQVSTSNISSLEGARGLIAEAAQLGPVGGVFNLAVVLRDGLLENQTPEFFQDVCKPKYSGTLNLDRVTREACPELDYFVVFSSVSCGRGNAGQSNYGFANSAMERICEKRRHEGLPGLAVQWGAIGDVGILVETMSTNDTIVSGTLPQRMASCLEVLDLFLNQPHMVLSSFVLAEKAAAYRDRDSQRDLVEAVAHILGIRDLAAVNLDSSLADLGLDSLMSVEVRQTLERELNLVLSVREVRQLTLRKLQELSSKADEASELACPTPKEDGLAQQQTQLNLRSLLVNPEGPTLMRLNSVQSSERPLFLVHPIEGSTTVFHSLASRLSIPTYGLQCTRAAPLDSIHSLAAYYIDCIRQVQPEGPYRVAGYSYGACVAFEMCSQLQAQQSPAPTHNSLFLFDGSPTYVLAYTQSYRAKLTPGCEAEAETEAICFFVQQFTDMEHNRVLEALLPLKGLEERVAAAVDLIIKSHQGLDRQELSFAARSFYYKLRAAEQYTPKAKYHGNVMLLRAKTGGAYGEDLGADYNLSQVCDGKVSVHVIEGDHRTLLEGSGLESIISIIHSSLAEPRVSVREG
T2 sequence (P12785 whole entry): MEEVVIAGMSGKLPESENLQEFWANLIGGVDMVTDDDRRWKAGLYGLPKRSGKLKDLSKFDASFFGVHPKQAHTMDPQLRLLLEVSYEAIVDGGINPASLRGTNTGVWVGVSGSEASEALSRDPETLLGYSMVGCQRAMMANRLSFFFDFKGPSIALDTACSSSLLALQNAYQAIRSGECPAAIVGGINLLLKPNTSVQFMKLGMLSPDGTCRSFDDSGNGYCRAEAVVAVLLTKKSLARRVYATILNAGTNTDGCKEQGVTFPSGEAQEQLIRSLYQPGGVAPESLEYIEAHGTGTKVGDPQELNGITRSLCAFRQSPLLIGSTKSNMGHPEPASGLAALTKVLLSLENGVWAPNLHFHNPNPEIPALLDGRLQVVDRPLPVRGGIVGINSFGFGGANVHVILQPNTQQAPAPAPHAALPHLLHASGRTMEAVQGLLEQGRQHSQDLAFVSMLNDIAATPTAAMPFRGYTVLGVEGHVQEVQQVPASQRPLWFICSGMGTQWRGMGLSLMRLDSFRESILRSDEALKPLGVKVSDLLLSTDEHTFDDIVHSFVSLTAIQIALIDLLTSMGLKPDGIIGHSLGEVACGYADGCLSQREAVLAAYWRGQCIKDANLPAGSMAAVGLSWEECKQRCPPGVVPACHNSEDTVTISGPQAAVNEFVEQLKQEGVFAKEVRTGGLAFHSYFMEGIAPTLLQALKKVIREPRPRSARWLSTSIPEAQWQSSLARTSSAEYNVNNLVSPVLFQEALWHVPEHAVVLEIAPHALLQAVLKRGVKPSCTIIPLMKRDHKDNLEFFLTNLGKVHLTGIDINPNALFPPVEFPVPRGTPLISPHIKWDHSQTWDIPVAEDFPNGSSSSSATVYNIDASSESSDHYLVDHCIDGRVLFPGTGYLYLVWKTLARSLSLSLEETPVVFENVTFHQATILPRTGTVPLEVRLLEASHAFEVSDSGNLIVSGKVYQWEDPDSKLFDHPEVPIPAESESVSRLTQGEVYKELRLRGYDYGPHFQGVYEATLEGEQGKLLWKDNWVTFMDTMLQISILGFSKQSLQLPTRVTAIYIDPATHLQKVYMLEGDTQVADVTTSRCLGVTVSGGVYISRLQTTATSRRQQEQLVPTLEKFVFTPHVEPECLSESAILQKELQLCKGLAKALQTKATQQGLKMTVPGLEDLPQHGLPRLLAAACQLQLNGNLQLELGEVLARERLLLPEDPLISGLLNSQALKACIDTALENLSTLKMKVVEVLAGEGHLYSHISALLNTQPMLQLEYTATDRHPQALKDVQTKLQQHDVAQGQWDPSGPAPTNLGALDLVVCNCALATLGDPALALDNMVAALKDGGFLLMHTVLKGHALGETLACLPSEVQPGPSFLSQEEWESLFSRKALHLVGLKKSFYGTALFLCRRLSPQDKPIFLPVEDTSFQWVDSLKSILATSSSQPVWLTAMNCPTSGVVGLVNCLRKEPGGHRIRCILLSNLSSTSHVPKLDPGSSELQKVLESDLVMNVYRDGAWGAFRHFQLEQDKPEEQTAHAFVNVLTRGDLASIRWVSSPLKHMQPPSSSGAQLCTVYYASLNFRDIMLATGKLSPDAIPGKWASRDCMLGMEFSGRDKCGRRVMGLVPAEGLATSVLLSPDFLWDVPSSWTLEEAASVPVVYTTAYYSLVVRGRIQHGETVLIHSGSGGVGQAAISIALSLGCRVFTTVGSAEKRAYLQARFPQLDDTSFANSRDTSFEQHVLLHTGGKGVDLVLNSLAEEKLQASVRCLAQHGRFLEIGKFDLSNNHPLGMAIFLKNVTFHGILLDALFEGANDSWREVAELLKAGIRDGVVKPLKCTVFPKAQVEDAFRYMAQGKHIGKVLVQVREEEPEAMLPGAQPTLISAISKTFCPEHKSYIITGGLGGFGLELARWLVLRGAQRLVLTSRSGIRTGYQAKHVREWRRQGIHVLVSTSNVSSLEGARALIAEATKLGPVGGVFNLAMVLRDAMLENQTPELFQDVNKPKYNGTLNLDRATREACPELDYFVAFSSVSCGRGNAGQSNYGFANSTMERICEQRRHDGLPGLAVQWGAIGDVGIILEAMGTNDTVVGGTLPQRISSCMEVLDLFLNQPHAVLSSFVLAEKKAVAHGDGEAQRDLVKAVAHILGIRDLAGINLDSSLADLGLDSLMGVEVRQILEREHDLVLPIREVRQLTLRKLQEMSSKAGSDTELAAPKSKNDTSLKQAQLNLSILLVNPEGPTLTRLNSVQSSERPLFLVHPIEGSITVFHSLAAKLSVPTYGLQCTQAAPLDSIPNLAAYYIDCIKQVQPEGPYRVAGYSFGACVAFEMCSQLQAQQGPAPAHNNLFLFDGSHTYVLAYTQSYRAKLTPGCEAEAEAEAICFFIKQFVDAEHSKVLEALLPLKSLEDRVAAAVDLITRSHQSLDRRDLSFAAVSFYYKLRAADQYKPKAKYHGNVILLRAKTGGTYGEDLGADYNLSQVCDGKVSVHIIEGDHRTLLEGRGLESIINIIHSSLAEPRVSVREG

As usually defined, the IC50 is the concentration that gives 50% inhibition. Take `C=C1C[C@@]23C=CC(=O)[C@@](C)(CCC(=O)Nc4c(O)ccc(C(=O)O)c4O)[C@@H]2C[C@@H]1CC3` [Formula II, platencin]: the IC50 was found to be 6.3 µM at human FAS and 3.24 µM in data set [2]. The “Inhibition of Oxidation of Fatty Acids, Rat Hepatocyte (% of control at 10 uM)” value in data set [1] was 66.0 % of control.

As for `C[C@]12C[C@@]34C=CC(=O)[C@@](C)(CCC(=O)Nc5c(O)ccc(C(=O)O)c5O)C3[C@H](CC1C4)O2` (stereo partly shown) [Formula I, platensimycin], the figures for the IC50 (on rat FAS; at human FAS; in data set [2]) were 0.18 µM, 0.3 µM and 0.093 µM, respectively. Also, the “Inhibition of Oxidation of Fatty Acids, Rat Hepatocyte (% of control at 10 uM)” value in data set [1] is 59.7 % of control.
